Reference: patent US20240150377A1, “MODULATORS OF CYSTIC FIBROSIS TRANSMEMBRANE CONDUCTANCE REGULATOR” (VERTEX PHARMACEUTICALS INCORPORATED, priority 2020, published 2024)
Where two headings read alike, the source gives them in different places.

Target: T1, CFTR (Homo sapiens, UniProt P13569, DEL508-508)
T1 construct: endogenous in cells; host or cells: primary human bronchial epithelial cells from CF subjects (F508del/MF-HBE), differentiated at air-liquid interface
Assay: HBE assay: Ussing chamber assay of CFTR-mediated short-circuit currents
Assay type: cell-based
Settings: Table 11; for Emax: read-out: HBE Max Activity (%)
How it was run: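 CFTR-mediated Isc (μA/cm²) equals the peak response to apical 20 μM forskolin minus the residual after a 20 μM each BPO/GlyH-101/CFTR inhibitor 172 cocktail, recorded in Ussing chambers at Vhold 0 mV, 37 °C, pH 7.4, with 30 μM apical amiloride. Cells were F508del/MF HBE cultures preincubated 18-24 h with corrector (concentration range or 10 μM) plus 1 μM ivacaftor in 20% human serum.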

T1 sequence (P13569 with tags, fused parts or gaps DEL508-508): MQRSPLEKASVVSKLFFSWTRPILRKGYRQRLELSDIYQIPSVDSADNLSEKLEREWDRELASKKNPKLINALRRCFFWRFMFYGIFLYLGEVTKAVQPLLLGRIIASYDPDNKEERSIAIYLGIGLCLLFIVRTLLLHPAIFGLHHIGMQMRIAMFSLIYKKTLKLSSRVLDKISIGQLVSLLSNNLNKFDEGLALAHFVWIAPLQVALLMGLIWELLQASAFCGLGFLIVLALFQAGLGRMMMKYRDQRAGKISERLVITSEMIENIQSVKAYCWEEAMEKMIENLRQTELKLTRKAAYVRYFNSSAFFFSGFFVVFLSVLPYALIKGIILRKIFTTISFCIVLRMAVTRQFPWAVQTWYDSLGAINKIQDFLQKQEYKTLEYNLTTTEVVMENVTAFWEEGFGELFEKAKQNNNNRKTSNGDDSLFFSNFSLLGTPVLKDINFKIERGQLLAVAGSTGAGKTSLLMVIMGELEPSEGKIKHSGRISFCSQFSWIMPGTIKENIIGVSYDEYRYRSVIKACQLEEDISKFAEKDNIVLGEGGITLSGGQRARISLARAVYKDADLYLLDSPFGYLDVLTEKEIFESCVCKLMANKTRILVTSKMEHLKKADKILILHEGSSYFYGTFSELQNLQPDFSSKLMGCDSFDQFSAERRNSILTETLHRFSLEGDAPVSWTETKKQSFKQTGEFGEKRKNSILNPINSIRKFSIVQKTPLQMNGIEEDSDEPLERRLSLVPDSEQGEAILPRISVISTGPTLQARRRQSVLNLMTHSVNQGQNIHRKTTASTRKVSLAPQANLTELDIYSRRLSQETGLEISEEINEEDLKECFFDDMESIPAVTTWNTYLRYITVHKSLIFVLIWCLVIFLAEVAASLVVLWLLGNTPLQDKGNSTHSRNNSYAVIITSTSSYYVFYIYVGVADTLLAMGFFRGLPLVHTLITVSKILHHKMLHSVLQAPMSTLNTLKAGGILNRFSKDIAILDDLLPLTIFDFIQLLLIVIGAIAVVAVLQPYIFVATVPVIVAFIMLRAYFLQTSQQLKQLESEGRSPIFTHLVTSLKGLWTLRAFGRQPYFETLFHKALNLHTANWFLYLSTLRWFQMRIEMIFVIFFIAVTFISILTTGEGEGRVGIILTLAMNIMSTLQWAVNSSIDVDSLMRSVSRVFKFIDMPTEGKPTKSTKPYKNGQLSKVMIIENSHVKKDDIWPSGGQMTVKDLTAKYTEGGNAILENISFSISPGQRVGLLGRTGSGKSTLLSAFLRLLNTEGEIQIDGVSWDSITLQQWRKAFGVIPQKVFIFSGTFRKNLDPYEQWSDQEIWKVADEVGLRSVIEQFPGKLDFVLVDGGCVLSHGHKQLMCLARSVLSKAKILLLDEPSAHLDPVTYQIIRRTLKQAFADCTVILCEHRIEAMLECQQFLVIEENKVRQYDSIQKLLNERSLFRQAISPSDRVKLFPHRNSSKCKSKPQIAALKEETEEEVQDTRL

Compound	EC50 (read-out: HBE EC50)	Emax	EC50 (HBE EC50 (μM))	HBE Max activity (%)	activation at 10 µM (at 10 μM, read-out: HBE Activity at 10 μM (%))
Cc1cccc(C)c1-c1cc2nc(n1)NS(=O)(=O)c1cccc(c1)C(=O)N(Cc1ncc(N3CCC(C)(C)CC3)cn1)[C@H](CC(C)C)CO2 [Compound 605]	3 to 30 µM	> 60%	–	–	–
Cc1cccc(C)c1-c1cc2nc(n1)NS(=O)(=O)c1cccc(c1)C(=O)N(Cc1ncc(N3CCC(C)(C)C3)cn1)[C@H](CC(C)C)CO2 [Compound 606]	< 1 µM	> 60%	–	–	–
Cc1cccc(C)c1-c1cc2nc(n1)NS(=O)(=O)c1cccc(c1)C(=O)N(Cc1cnc(N3CCC(C)(C)C3)cn1)[C@H](CC(C)(C)C)CO2 [Compound 607]	< 1 µM	> 60%	–	–	–
Cc1cccc(C)c1-c1cc2nc(n1)NS(=O)(=O)c1cccc(c1)C(=O)N(Cc1cnc(N3CCC(C)(C)CC3)cn1)[C@H](CC(C)(C)C)CO2 [Compound 608]	< 1 µM	> 60%	–	–	–
Cc1cccc(C)c1-c1cc2nc(n1)NS(=O)(=O)c1cccc(c1)C(=O)N(Cc1ccc(N3CCC(C)(C)C3)cn1)[C@H](CC(C)(C)C)CO2 [Compound 609]	1 to 3 µM	> 60%	–	–	–
Cc1cccc(C)c1-c1cc2nc(n1)NS(=O)(=O)c1cccc(c1)C(=O)N(Cc1ncc(OC(C)C)c(C)n1)[C@H](CC(C)(C)C)CO2 [Compound 610]	< 1 µM	> 60%	–	–	–
COc1cnc(CN2C(=O)c3cccc(c3)S(=O)(=O)Nc3nc(cc(-c4c(C)cccc4C)n3)OC[C@H]2CC(C)(C)C)nc1C [Compound 611]	< 1 µM	> 60%	–	–	–
Cc1cccc(C)c1-c1cc2nc(n1)NS(=O)(=O)c1cccc(c1)C(=O)N(Cc1ncc(N3CCC4(CCC4)C3)cn1)[C@H](CC(C)(C)C)CO2 [Compound 612]	< 1 µM	> 60%	–	–	–
Cc1cccc(C)c1-c1cc2nc(n1)NS(=O)(=O)c1cccc(c1)C(=O)N(Cc1ncc(N3CC4CC(C4)C3)cn1)[C@H](CC(C)(C)C)CO2 [Compound 613]	–	> 60%	< 1 µM	–	–
Cc1cccc(C)c1-c1cc2nc(n1)NS(=O)(=O)c1cccc(c1)C(=O)N(Cc1nccc(NC3CCCCC3)n1)[C@H](CC(C)(C)C)CO2 [Compound 614]	< 1 µM	> 60%	–	–	–
Cc1cccc(C)c1-c1cc2nc(n1)NS(=O)(=O)c1cccc(c1)C(=O)N(Cc1nccc(N(C)C3CC4(CC4)C3)n1)[C@H](CC(C)(C)C)CO2 [Compound 615]	< 1 µM	> 60%	–	–	–
Cc1cccc(C)c1-c1cc2nc(n1)NS(=O)(=O)c1cccc(c1)C(=O)N(Cc1nccc(N(C)C3CCOCC3)n1)[C@H](CC(C)(C)C)CO2 [Compound 616]	< 1 µM	> 60%	–	–	–
Cc1cccc(C)c1-c1cc2nc(n1)NS(=O)(=O)c1cccc(c1)C(=O)N(Cc1nccc(N(C)C3CCCC3)n1)[C@H](CC(C)(C)C)CO2 [Compound 617]	1 to 3 µM	> 60%	–	–	–
Cc1cccc(C)c1-c1cc2nc(n1)NS(=O)(=O)c1cccc(c1)C(=O)N(Cc1nccc(N3CCC[C@H]3C)n1)[C@H](CC(C)(C)C)CO2 [Compound 618]	< 1 µM	> 60%	–	–	–
Cc1cccc(C)c1-c1cc2nc(n1)NS(=O)(=O)c1cccc(c1)C(=O)N(Cc1nccc(N3CCC(C)(C)CC3)n1)[C@H](CC(C)(C)C)CO2 [Compound 620]	–	–	–	+ (+ is <30%)	> 60%
Cc1cccc(C)c1-c1cc2nc(n1)NS(=O)(=O)c1cccc(c1)C(=O)N(Cc1cccc(C3=CCCC3)n1)[C@H](CC(C)(C)C)CO2 [Compound 621]	< 1 µM	> 60%	–	–	–
Cc1cccc(C)c1-c1cc2nc(n1)NS(=O)(=O)c1cccc(c1)C(=O)N(Cc1ncc(N3CC4(CC4)C3)cn1)[C@H](CC(C)(C)C)CO2 [Compound 622]	1 to 3 µM	> 60%	–	–	–
CO[C@@H]1CCN(c2cnc(CN3C(=O)c4cccc(c4)S(=O)(=O)Nc4nc(cc(-c5c(C)cccc5C)n4)OC[C@H]3CC(C)(C)C)nc2)C1 [Compound 623]	< 1 µM	> 60%	–	–	–

Compound	EC50 (read-out: HBE EC50)	Emax	EC50 (HBE EC50 (μM))	HBE Max activity (%)	activation at 10 µM (at 10 μM, read-out: HBE Activity at 10 μM (%))
CO[C@@H]1CCN(c2cccc(CN3C(=O)c4cccc(c4)S(=O)(=O)Nc4nc(cc(-c5c(C)cccc5C)n4)OC[C@H]3CC(C)(C)C)n2)C1 [Compound 624]	< 1 µM	> 60%	–	–	–
COC1CCN(c2cccc(CN3C(=O)c4cccc(c4)S(=O)(=O)Nc4nc(cc(-c5c(C)cccc5C)n4)OC[C@H]3CC(C)(C)C)n2)C1 (stereo partly drawn) [Compound 625]	< 1 µM	> 60%	–	–	–
Cc1cccc(C)c1-c1cc2nc(n1)NS(=O)(=O)c1cccc(c1)C(=O)N(Cc1cccc(C3CCC3)n1)[C@H](CC(C)(C)C)CO2 [Compound 626]	< 1 µM	> 60%	–	–	–
Cc1cccc(C)c1-c1cc2nc(n1)NS(=O)(=O)c1cccc(c1)C(=O)N(Cc1nccc(N(C)C3CCC3)n1)[C@H](CC(C)(C)C)CO2 [Compound 627]	< 1 µM	> 60%	–	–	–
Cc1cccc(C)c1-c1cc2nc(n1)NS(=O)(=O)c1cccc(c1)C(=O)N(Cc1ccnc(N(C)C(C)C)n1)[C@H](CC(C)(C)C)CO2 [Compound 628]	< 1 µM	> 60%	–	–	–
Cc1cccc(C)c1-c1cc2nc(n1)NS(=O)(=O)c1cccc(c1)C(=O)N(Cc1ncc(N(C(C)C)C(C)C)cn1)[C@H](CC(C)(C)C)CO2 [Compound 629]	3 to 30 µM	> 60%	–	–	–
Cc1cccc(C)c1-c1cc2nc(n1)NS(=O)(=O)c1cccc(c1)C(=O)N(Cc1cccc(N3CCCC3)n1)[C@H](CC(C)(C)C)CO2 [Compound 630]	< 1 µM	> 60%	–	–	–
Cc1cccc(C)c1-c1cc2nc(n1)NS(=O)(=O)c1cccc(c1)C(=O)N(Cc1ncc(C3CCN(C)CC3)cn1)[C@H](CC(C)(C)C)CO2 [Compound 631]	< 1 µM	> 60%	–	–	–
Cc1cccc(C)c1-c1cc2nc(n1)NS(=O)(=O)c1cccc(c1)C(=O)N(Cc1cccc(N3CC(C)(C)C3)n1)[C@H](CC(C)(C)C)CO2 [Compound 632]	< 1 µM	> 60%	–	–	–
Cc1cccc(C)c1-c1cc2nc(n1)NS(=O)(=O)c1cccc(c1)C(=O)N(Cc1ncc(N(C)C(C)C)cn1)[C@H](CC(C)(C)C)CO2 [Compound 633]	1 to 3 µM	> 60%	–	–	–
Cc1cccc(C)c1-c1cc2nc(n1)NS(=O)(=O)c1cccc(c1)C(=O)N(Cc1ncc(C3CCOCC3)cn1)[C@H](CC(C)(C)C)CO2 [Compound 634]	< 1 µM	> 60%	–	–	–
Cc1cccc(C)c1-c1cc2nc(n1)NS(=O)(=O)c1cccc(c1)C(=O)N(Cc1ncc(C3CCC3)cn1)[C@H](CC(C)(C)C)CO2 [Compound 635]	3 to 30 µM	> 60%	–	–	–
Cc1cccc(C)c1-c1cc2nc(n1)NS(=O)(=O)c1cccc(c1)C(=O)N(Cc1nccc(N3CCC(C)(C)CC3)n1)[C@H](CC(C)(C)C)CO2 [Compound 636]	< 1 µM	–	–	+++ (+++ is >60%)	–
Cc1cccc(C)c1-c1cc2nc(n1)NS(=O)(=O)c1cccc(c1)C(=O)N(Cc1cccc(N(C(C)C)C(C)C)n1)[C@H](CC(C)(C)C)CO2 [Compound 637]	3 to 30 µM	> 60%	–	–	–
Cc1cccc(C)c1-c1cc2nc(n1)NS(=O)(=O)c1cccc(c1)C(=O)N(Cc1ncc(C3CCCC3)cn1)[C@H](CC(C)(C)C)CO2 [Compound 638]	1 to 3 µM	> 60%	–	–	–
COCCN1CCC(CN2C(=O)c3cccc(c3)S(=O)(=O)Nc3nc(cc(-c4c(C)cccc4C)n3)OC[C@H]2CC(C)(C)C)C1=O (stereo partly drawn) [Compound 639]	< 1 µM	> 60%	–	–	–
COCCN1CCC(CN2C(=O)c3cccc(c3)S(=O)(=O)Nc3nc(cc(-c4c(C)cccc4C)n3)OC[C@H]2CC(C)(C)C)C1=O (stereo partly drawn) [Compound 640]	< 1 µM	–	–	–	–
